Data as given in US8592394B2, “Synthetic derivatives beta glycolipids and compositions thereof for the treatment of pathologic disorders” (Enzo Therapeutics, Inc., priority 2003, dated 2013).

What was measured:
[1] = tested on: STAT4; experiment: Immunoblot of liver lysates: STAT4; assay type: in vivo, mice; details: IP
Method: For ConA induced hepatitis experiments spleen and liver lysates were lysed in RIPA buffer containing 50 mM Tris, pH 7.4, 1% NP-40, 150 mM NaCl, 0.1% SDS, 0.5% sodium deoxycholate and protease inhibitors (5 μg/ml, Sigma), with protease and phosphatase (Sigma, Rehovot, Israel).
(§1) Lysates were centrifuged twice at 4° C. for 10 minutes in 14000 rpm. Equivalent amounts of lysates (15 μg/lane), determined by Bradford assay (Bio-Rad, Rehovot, Israel), were separated by sodium dodecyl sulfate polyacrylamide gel electrophoresis (SDS-PAGE) and transferred to nitrocellulose membranes.
(§2) Blots were developed with horseradish peroxidase-conjugated secondary antibodies (Jackson Laboratories Bar Harbor, Me.) and Western Blot-Luminol Reagent (Santa Cruz Biotechnology, CA, USA). Cell counting and western Blot quantification was performed using total Lab (Phoretix, USA) software.

[2] = tested on: AKT; experiment: Western blot of liver extracts of ob/ob mice: AKT activation; assay type: in vivo; details: per os daily 4 weeks, 15 μg (group D)
Method: For analysis of whole tissue lysates, snap-frozen liver pieces were homogenized in 0.75 ml of ice-cold PBS and centrifuged at 4° C. for 5 min in 2000 rpm. Pellets were lysed with 50 mM beta glycerophosphate, 1.5 mM EGTA, PH 7.3, 1 mM EDTA, PH 7.3, 1 mM DTT, 0.1 mM Sodium vanadate, 1% NP-40, and cocktails of protease and phosphatase (Sigma, Rehovot, Israel).
as §1
For metabolic syndrome experiments, proteins were detected with JNK-2, Phospho JNK (Thr183/Tyr185), Akt and phospho Akt (Ser 473) antibodies (Cell Signaling Technologies, MA). β-actin (abcam, UK) was used as the loading control.
as §2
Therefore, five groups of male C57BL/6 Ob/Ob mice were studied. […]

[3] = tested on: fat-associated T cells; experiment: Flow cytometry of T cell subsets in adipose tissue, stromal vascular cells and spleen of ob/ob mice; assay type: in vivo; details: 45 μg per os daily 4 weeks, vs vehicle
Method: Splenocytes and intrahepatic lymphocytes were isolated as follows: livers and spleens were kept in RPMI-1640+FCS. Then spleens were crushed through a 70 μm nylon cell strainer (Falcon) and centrifuged (1250 rpm for 7 min) for the removal of cell debris. Red blood cells were lysed with 1 ml of cold 155 mM ammonium chloride lysis buffer and centrifuged (1250 rpm for 3 min). Splenocytes were resuspended with 1 ml RPMI+FCS. Cell viability by trypan blue staining was above 90%. For intrahepatic lymphocytes, livers were crushed through a stainless mesh (size 60, Sigma) and the cell suspension was placed in a 50-ml tube for 5 min. Lymphoprep (10 ml, Ficoll, Axis-Shield PoC AS, Oslo, Norway) was placed under similar volume of cell suspension in 50-ml tubes. Tubes were centrifuged at 1800 rpm for 18 min. Cells in the interface were collected and centrifuged at 1800 rpm for 10 min, to obtain a pellet of cells depleted of hepatocytes to a final volume of 250 μl. Approximately 1×10^6 cells/mouse liver, were recovered.
Adipose tissue (visceral fat pads) was minced and incubated in Krebs-Ringer bicarbonate buffer (3 mL/g adipose tissue) containing 10mM glucose and 2.5% bovine serum albumin, incubated with 840 U/g collagenase type I (Sigma, Rehovot, Israel)) at 37° C. for 1 hour. Cells were filtered twice through chiffon mesh (100 μm) and centrifuged 50 g for 5 min. Floating adipocytes were separated from pelleted S/V fraction. The infranatant fraction was removed and centrifuged at 200 g for five minutes to pellet the S/V cells.
For metabolic syndrome experiments, the following antibodies were used for flow cytometry: anti-CD4-Pacific Blue, anti-CD8-FITC, anti-IL-17-PE, anti CD25-PercP-Cy5.5 and anti FOX3p PE-Cy725 (all from eBioscience, San Diego, Calif.). Surface staining was performed by incubating cells with antibodies and anti-CD16/32 (blocks Fc, eBioscience) at 4° C. in FACS buffer containing PBS and 0.5% BSA, for 30 min. Cells were washed twice with FACS buffer, resuspended in FACS buffer, and analyzed by flow cytometry. Appropriate isotype controls were used in all experiments. Intracellular staining was performed using Foxp3 staining buffer kit (eBioscience, San Diego, Calif.). Cells were incubated with 1 ml Fixation/Permeabilization solution for 50 min, washed twice with Permeabilization buffer and incubated with anti-Foxp3 Ab for 50 min. Cells were then washed twice with Permeabilization buffer and resuspended with FACS buffer. Analysis was performed using a FACSCalibur instrument (Becton Dickinson, San Jose, Calif.) with FCS express V.3 software (DeNovo software, Los Angeles, Calif.).
Therefore, five groups of male C57BL/6 Ob/Ob mice were studied. Mice (6 per group) were fed (per os) daily for 4 weeks with 15 or 45 μg of GC (groups B and C, respectively) and 15 or 45 μg of ALIB-97 (groups D and E, respectively). Control mice (Group A) were administered vehicle only.

CCCCCCCCCCCCCC=CC(O)C(CO[C@@H]1OC(CO)[C@@H](O)C(O)C1O)NC(=S)NC12CC3CC(CC(C3)C1)C2 (stereo in doubt) [ALIB-97, N-adamantyl-N′-glucosylsphingosine thiourea]
STAT4 expression in the liver ([1]; B6 mice): strikingly decreased
STAT4 expression in the liver ([1]; CD1d−/− mice): remained unchanged
AKT activation [2]: decreased
CD4+CD25+FOXP3+ cells, ADIPOCYTES [3]: ↑↑ (↓/↑ and ↓↓/↑↑-p≦0.05 and p≦0.01 respectively)
CD4+CD25+IL17+ cells, SVC [3]: ↑ (↓/↑ and ↓↓/↑↑-p≦0.05 and p≦0.01 respectively)
CD4+FOXP3+ cells, SPLEEN [3]: ↓ (↓/↑ and ↓↓/↑↑-p≦0.05 and p≦0.01 respectively)
CD4+FOXP3+IL17+ cells, ADIPOCYTES [3]: ↓ (↓/↑ and ↓↓/↑↑-p≦0.05 and p≦0.01 respectively)
CD4+IL17+ cells, ADIPOCYTES [3]: ↓ (↓/↑ and ↓↓/↑↑-p≦0.05 and p≦0.01 respectively)
CD8+CD25+ cells, ADIPOCYTES [3]: ↓ (↓/↑ and ↓↓/↑↑-p≦0.05 and p≦0.01 respectively)
CD8+CD25+FOXP3+ cells, SPLEEN [3]: ↑↑ (↓/↑ and ↓↓/↑↑-p≦0.05 and p≦0.01 respectively)
CD8+CD25+FOXP3+ cells, SVC [3]: ↓ (↓/↑ and ↓↓/↑↑-p≦0.05 and p≦0.01 respectively)
CD8+CD25+FOXP3+IL17+ cells, ADIPOCYTES [3]: ↓ (↓/↑ and ↓↓/↑↑-p≦0.05 and p≦0.01 respectively)
CD8+CD25+FOXP3+IL17+ cells, SPLEEN [3]: ↑ (↓/↑ and ↓↓/↑↑-p≦0.05 and p≦0.01 respectively)
CD8+CD25+IL17+ cells, ADIPOCYTES [3]: ↑ (↓/↑ and ↓↓/↑↑-p≦0.05 and p≦0.01 respectively)
CD8+CD25+IL17+ cells, SVC [3]: ↑ (↓/↑ and ↓↓/↑↑-p≦0.05 and p≦0.01 respectively)
CD8+FOXP3+ cells, SPLEEN [3]: ↑↑ (↓/↑ and ↓↓/↑↑-p≦0.05 and p≦0.01 respectively)
CD8+FOXP3+IL17 cells, ADIPOCYTES [3]: ↓↓ (↓/↑ and ↓↓/↑↑-p≦0.05 and p≦0.01 respectively)
CD8+IL17+ cells, ADIPOCYTES [3]: ↓ (↓/↑ and ↓↓/↑↑-p≦0.05 and p≦0.01 respectively)
CD25+FOXP3+ cells, SPLEEN [3]: ↓ (↓/↑ and ↓↓/↑↑-p≦0.05 and p≦0.01 respectively)
